One block for each compound: values may come before it.
Assays:
BV2 microglia [1] = assay: LPS-induced NO production in BV2 microglial cell line (Griess reaction); format: cell-based; conditions: for LPS-induced NO production: BV2, Src kinase inhibitor PP2 (5 μM) or PDTC (FIG. 18)
Experimental: Since the production of NO (nitric oxide) is a strong marker of inflammatory response in microglia, the effect of PTP1B on LPS-induced NO production was investigated through the Griess reaction. The production of NO was measured using the amount of nitrite. Naive microglia or microglia overexpressing PTP1B were treated with LPS (originated from E. coli 055: B5; Sigma). FIG. 6 illustrates the result of treatment with a BV2 microglial cell line at the indicated dose of LPS. FIG. 7 illustrates the results of treating a BV2 microglial cell line with 100 ng LPS at the indicated time. 24 hours after incubation, 5 μl the cell culture media was mixed with Griess reagent with the same volume (0.1% naphthylethylenediamine dihydrochloride and 1% sulfanylamine in 5% phosphoric acid) in a 96-well microtiter plate. Absorbance was read at 540 nm and sodium nitrite was used for standard curve generation.
In addition, the level of LPS-induced NO production after BV2 treatment with Src kinase inhibitor PP2 (5 μM) or PDTC (Ammonium pyrrolidinedithiocarbamate, NFκB inhibitor) was identified to determine whether Src is associated with LPS-induced microglia activity. This is illustrated in FIG. 18.
Next, it was determined whether the PTP1B-mediated proinflammatory response was dependent on Src activity in microglia. […] NO levels were measured in the treated BV2 microglia and the results are illustrated in FIG. 19.

[2] = test system: microglia (Iba-1 positive cells); assay: Iba-1 positive activated microglia in brain of LPS-injected mice (brain inflammation model); format: in vivo, mouse; conditions: inhibitor intracerebrally, LPS 5 mg/kg i.p., 48 hours
Experimental: C57BL/6 mice were injected intracerebrally with vehicle (saline solution containing 0.5% DMSO and 5% propylene glycol) or the PTP inhibitor of Table 2 above (dilution in saline solution containing 5% propylene glycol). LPS (5 mg/kg) was intraperitoneally injected 30 minutes after injection. Mice were sacrificed and the brain was analyzed 48 hours after LPS injection.
The mouse model was divided into eight experimental groups; Group 1 treated with saline solution and 0.5% DMSO; Group 2 treated with LPS and 0.5% DMSO; Group 3 treated with LPS and PTP1B inhibitor; Group 4 treated with LPS and TC-PTP inhibitor; Group 5 treated with LPS and SHP2 inhibitor; Group 6 treated with LPS and MEG2 inhibitor; Group 7 treated with LPS and LYP inhibitor; and Group 8 treated with LPS and RPTPP inhibitor. The experimental design above is illustrated in FIG. 4A.
FIG. 4B illustrates the histochemical results of confirming whether the sacrificed mouse brain is morphologically changed by straining the antibody against Iba-1, a marker of microglia.
In addition, the brains were removed and sectioned, and the hippocampus, cortex and thalamus were stained with an antibody against Iba-1. The results of histochemical confirmation are illustrated in FIG. 4C. The results of graphical representation of the number of Iba-1 positive cells per mm^2 are illustrated in FIG. 4D.

primary microglia = assay: LPS-induced NO production in mouse primary microglia; format: cell-based; conditions: 5 μM iPTP1B, LPS 50 ng/ml 24 hours (FIG. 10)
From the text: NO levels were confirmed in the stimulated primary microglia.

HAPI cells [3] = assay: TNFα-induced NO production in HAPI rat microglial cell line; format: cell-based; conditions: 10 μM iPTP1B 1 hour, TNFα 100 ng/ml 24 hours (FIG. 12)
From the text: NO levels were identified in the stimulated cells.

BV2 microglia [4] = assay: RT-PCR of LPS-induced proinflammatory molecule mRNA in BV2 microglia; format: cell-based; conditions: BV2, LPS 100 ng/ml 6 hours, RT-PCR (FIGS. 13, 14)
From the text: The results are illustrated in FIG. 13.

HAPI cells [5] = assay: LPS-induced NO production in HAPI rat microglial cell line; format: cell-based; conditions: 10 μM iPTP1B 1 hour, LPS 100 ng/ml 24 hours (FIG. 11)
From the text: NO levels were confirmed in the stimulated rat microglial cell line, HAPI cells.

BV2 microglia [6] = assay: TNFα protein ELISA in BV2 microglial culture media; format: cell-based; conditions: BV2, LPS, 24-hour incubation, ELISA (FIG. 15)
Experimental: In addition, the level of TNFα protein in the BV2 microglial culture media treated with LPS as described above was confirmed by ELISA. […] After 24-hour incubation, the TNFα levels in the culture media were measured using a rat monoclonal anti-mouse TNFα antibody as the capture antibody and a goat biotinylated polyclonal anti-mouse TNFα antibody as the detection antibody. The measured levels of TNFα protein results are illustrated in FIG. 15.

PTP1B = molecular target: T1, PTP1B (Homo sapiens, UniProt P18031); conditions: statement without data; inhibitor obtained from Dr. Zhang group; cited from earlier work
T1 sequence (P18031 1-435): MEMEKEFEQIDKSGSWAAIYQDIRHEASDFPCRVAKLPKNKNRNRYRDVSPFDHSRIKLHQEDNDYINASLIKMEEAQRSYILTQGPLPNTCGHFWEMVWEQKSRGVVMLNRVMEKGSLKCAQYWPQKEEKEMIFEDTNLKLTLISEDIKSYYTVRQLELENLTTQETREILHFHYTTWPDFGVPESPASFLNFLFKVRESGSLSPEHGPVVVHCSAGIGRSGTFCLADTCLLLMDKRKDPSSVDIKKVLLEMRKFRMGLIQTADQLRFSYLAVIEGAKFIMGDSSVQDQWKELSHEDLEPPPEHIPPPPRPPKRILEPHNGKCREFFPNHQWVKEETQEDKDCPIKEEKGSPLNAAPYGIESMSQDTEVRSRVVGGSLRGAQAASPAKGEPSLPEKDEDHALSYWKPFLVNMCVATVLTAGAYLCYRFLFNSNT

Src = assay: Phosphorylation of Src at Y527 in brain of LPS-injected inflammatory mouse model; format: in vivo; conditions: LPS+iPTP1B or iPTP1B injected into the brain, after 24 hours (FIG. 20)
Experimental: In addition, in vivo experiments were carried out using an inflammatory mouse model injected with LPS to identify the effect of PTP1B on phosphorylation of Src at Y527 in vivo. […] At this time, total Src and beta-actin were used as a loading control group and Lnc2 was used as a marker of neuroinflammation. The results are illustrated in FIG. 20.

brain tissues = assay: Real-time PCR of TNFα and IL1β expression in brain tissue after LPS and iPTP1B injection; format: in vivo, mouse; conditions: real-time PCR 6 hours after injection of LPS (FIG. 23)
Experimental: The expression level of TNFα and IL1β genes, which are proinflammatory factors, was measured by real-time PCR 6 hours after the injection of LPS, and the results are illustrated in FIG. 23.

Compound: N.S=C(S)N1CCCC1 [PDTC, Ammonium pyrrolidinedithiocarbamate]
LPS-induced NO production (BV2 microglia [1]): inhibited significantly

Compound: CC(C)(C)n1nc(-c2ccc(Cl)cc2)c2c(N)ncnc21 [PP2]
dose dependence of inhibition of LPS-induced NO production (BV2 microglia [1]; BV2, PP2 pretreatment (FIG. 18)): dose-dependent | LPS-induced NO production (BV2 microglia [1]): inhibited significantly | NO levels: effect on the anti-inflammatory effect of iPTP1B (BV2 microglia [1]; BV2 pretreated with PP2 or iPTP1B 1 hour, LPS 24 hours (FIG. 19)): eliminated the anti-inflammatory effect of iPTP1B

Compound: Cn1c(-c2cccc(NC(=O)CNC(=O)c3cc(Br)cc(I)c3)c2)c(I)c2cc(C(=O)O)c(O)cc21 [RPTPβ inhibitor, 2-(3-(2-(3-bromo-5-iodobenzamido)acetamido)phenyl)-6-hydroxy-3-iodo-1-methyl-1H-indole-5-carboxylic acid]
activation of LPS-induced microglia (Iba-1 positive cells) in the cortex [2]: decrease the activation of LPS-induced microglia | activation of LPS-induced microglia (Iba-1 positive cells) in the hippocampus [2]: decrease the activation of LPS-induced microglia

Compound: CCc1ccc(C(=O)NCCCC[C@H](NC(=O)[C@H](Cc2ccc(C(F)(F)P(=O)(O)O)cc2)NC(=O)[C@H](Cc2ccccc2)NC(=O)CO[C@@H]2C[C@@H](C)CC[C@@H]2C(C)C)C(N)=O)cc1 [TC-PTP inhibitor]
activation of LPS-induced microglia (Iba-1 positive cells) in the cortex [2]: decrease the activation of LPS-induced microglia

Compound: ((4-((S)-3-(((S)-1-amino-3-(2-(4-hydroxy-3-methoxyphenyl)acetamido)-1-oxopropan-2-yl)amino)-5-(3-iodobenzamido)-1-oxopentan-2-yl)amino)-6-hydroxy-3-iodo-1-methyl-2-(3-(2-oxo-2-((4-thiophen-3-yl)phenyl)amino)acetamido)phenyl)-1H-indole-5-carboxlic acid [SHP2 inhibitor]
activation of LPS-induced microglia (Iba-1 positive cells) in the hippocampus [2]: decrease the activation of LPS-induced microglia

IC50 (BV2 microglia [1]; BV2, pretreated 1 hour, LPS 100 ng/ml, Griess method (FIG. 9), read-out: IC50 for level of LPS-induced NO): 10.3 µM
Compound: (S)-4-(((S)-1-(12-azanyl)-3-(4-(difluoro(phosphono)methyl)phenyl)-1-oxopropan-2-yl)amino)-3-((S)-3-(4-(difluoro(phosphono)methyl)phenyl)-2-pentadecanamidopropanamido)-4-oxobutanoic acid [iPTP1B]
level of LPS-induced NO (primary microglia): significantly decreased | TNFα-induced NO level (HAPI cells [3]): significantly decreased | LPS-induced IL1β mRNA expression (BV2 microglia [4]; 10 M iPTP1B): significantly inhibits | LPS-induced TNFα mRNA expression (BV2 microglia [4]; 10 M iPTP1B): significantly inhibits | LPS-induced iNOS mRNA expression (BV2 microglia [4]; 10 M iPTP1B): significantly inhibits | LPS-induced Cox2 mRNA expression (BV2 microglia [4]; iPTP1B): significantly inhibits | activation of LPS-induced microglia (Iba-1 positive cells) in the cortex [2]: decrease the activation of LPS-induced microglia | activation of LPS-induced microglia (Iba-1 positive cells) in the hippocampus [2]: decrease the activation of LPS-induced microglia | level of LPS-induced NO (HAPI cells [5]): significantly decreased | expression level of TNFα protein in the culture media (BV2 microglia [6]): significantly low | level of LPS-induced NO (BV2 microglia [1]; BV2, different concentrations of iPTP1B, LPS 100 ng/ml (FIG. 9)): dose-dependently decreased | NO production, treatment with inhibitor alone (basic level) (BV2 microglia [1]; BV2, iPTP1B alone without LPS): did not inhibit or increase NO production | specificity for PTP1B (PTP1B): highly specific to PTP1B | phosphorylation of Src at Y527 in vivo (Src): increased phosphorylation of Src at Y527 | expression of IL1β gene in brain (brain tissues): significantly weakened | expression of TNFα gene in brain (brain tissues): significantly weakened
